Results published in patent US20150105252A1, “SUBSTITUTED PYRAZOLES AS HERBICIDES” (E I DU PONT DE NEMOURS AND COMPANY, priority 2013, published 2015).

Tests used:
[1] = tested on: corn; experiment: Test A postemergence; type: in vivo, Zea mays
Summary of the method: (§1)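 Pre- and postemergence greenhouse test; loam+sand; cpd in non-phytotox. solvent/surfactant; post at 1–2 leaf, 2–10 cm; visual score ~10 d, 0 = none, 100 = complete control.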

[2] = tested on: foxtail, giant; experiment: Test C postemergence; type: in vivo, Setaria faberii
Summary of the method: (§2)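 Herbicidal effect is expressed as percent visual control (0–100) judged against untreated plants 13 to 15 days after treatment in the greenhouse. Preemergence pots contained seeds in a soil–sand blend; postemergence plants, 2–18 cm tall, grew in peat-based planting medium.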

[3] = tested on: soybean; experiment: Test C postemergence; type: in vivo, Glycine max
Summary of the method: as §2

[4] = tested on: pigweed; experiment: Test C postemergence; type: in vivo, Amaranthus retroflexus
Summary of the method: as §2

[5] = tested on: wheat; experiment: Test C postemergence; type: in vivo, Triticum aestivum
Summary of the method: as §2

[6] = tested on: foxtail, giant; experiment: Test A preemergence; type: in vivo, Setaria faberii; details: preemergence
Summary of the method: as §1

[7] = tested on: blackgrass; experiment: Test C postemergence; type: in vivo, Alopecurus myosuroides
Summary of the method: as §2

[8] = tested on: barnyardgrass; experiment: Test C postemergence; type: in vivo, Echinochloa crus-galli
Summary of the method: as §2

[9] = tested on: blackgrass; experiment: Test C preemergence; type: in vivo, Alopecurus myosuroides; details: for Blackgrass plant response rating: scale 0 to 100 (0 no effect, 100 complete control)
Summary of the method: as §2

[10] = tested on: johnsongrass; experiment: Test C preemergence; type: in vivo, Sorghum halepense; details: for Johnsongrass plant response rating: scale 0 to 100 (0 no effect, 100 complete control)
Summary of the method: as §2

[11] = tested on: pigweed; experiment: Test C preemergence; type: in vivo, Amaranthus retroflexus; details: for Pigweed plant response rating: scale 0 to 100 (0 no effect, 100 complete control)
Summary of the method: as §2

[12] = tested on: galium; experiment: Test C preemergence; type: in vivo, Galium aparine; details: for Galium plant response rating: scale 0 to 100 (0 no effect, 100 complete control)
Summary of the method: as §2

[13] = tested on: ragweed; experiment: Test C postemergence; type: in vivo, Ambrosia elation
Summary of the method: as §2

[14] = tested on: pigweed; experiment: Test A preemergence; type: in vivo, Amaranthus retroflexus; details: preemergence
Summary of the method: as §1

[15] = Postemergence, 31 g ai/ha, visually evaluated after 13 to 15 days
[16] = postemergence, 62 g ai/ha, scale 0 to 100
[17] = postemergence, 250 g ai/ha, scale 0 to 100 (0 no effect, 100 complete control)
[18] = postemergence, 125 g ai/ha, scale 0 to 100, 0 no effect, 100 complete control
[19] = 125 g ai/ha, visual injury, 0 to 100 scale, approx. 10 days
[20] = 500 g ai/ha, visual injury after approx. 10 days, 0 to 100 scale (0 no effect, 100 complete control)
[21] = preemergence, 31 g ai/ha, visual rating, 13 to 15 days
[22] = preemergence, 62 g ai/ha, 13 to 15 days
[23] = preemergence, 125 g ai/ha, 13 to 15 days, scale 0 to 100, 0 = no effect, 100 = complete control

## CCOc1cc(C(=O)NCC(F)(F)F)nn1Cc1ccnc(OC(F)F)c1 [Compound 128]
[1]; Postemergence, 500 g ai/ha, 0 to 100 scale (0 no effect, 100 complete control)
  Corn plant response rating: 90
[1]; postemergence, 125 g ai/ha, about 10 days, visual rating on 0 to 100 scale (0 no effect, 100 complete control)
  Corn plant response rating: 90
[2]; [15]
  Plant response rating (scale of 0 to 100 where 0 is no effect and 100 is complete control), Foxtail, Giant: 5
[2]; [16]
  Foxtail, Giant plant response rating: 10
[2]; [17]
  Plant response rating, Foxtail, Giant: 85
[2]; [18]
  Plant response rating, Foxtail, Giant: 25
[3]; [15]
  Plant response rating (scale of 0 to 100 where 0 is no effect and 100 is complete control), Soybean: 65
[3]; [16]
  Soybean plant response rating: 95
[3]; [17]
  Plant response rating, Soybean: 98
[3]; [18]
  Plant response rating, Soybean: 95
[4]; [15]
  Plant response rating (scale of 0 to 100 where 0 is no effect and 100 is complete control), Pigweed: 65
[4]; [16]
  Pigweed plant response rating: 70
[4]; [17]
  Plant response rating, Pigweed: 90
[4]; [18]
  Plant response rating, Pigweed: 65
[5]; [15]
  Plant response rating (scale of 0 to 100 where 0 is no effect and 100 is complete control), Wheat: 5
[5]; [16]
  Wheat plant response rating: 5
[5]; [17]
  Plant response rating, Wheat: 5
[5]; [18]
  Plant response rating, Wheat: 10
[6]; [19]
  Foxtail, Giant plant response rating: 100
[6]; [20]
  Foxtail, Giant plant response rating: 100
[7]; [15]
  Plant response rating (scale of 0 to 100 where 0 is no effect and 100 is complete control), Blackgrass: 10
[7]; [16]
  Blackgrass plant response rating: 5
[7]; [17]
  Plant response rating, Blackgrass: 80
[7]; [18]
  Plant response rating, Blackgrass: 10
[8]; [15]
  Plant response rating (scale of 0 to 100 where 0 is no effect and 100 is complete control), Barnyardgrass: 5
[8]; [16]
  Barnyardgrass plant response rating: 5
[8]; [17]
  Plant response rating, Barnyardgrass: 60
[8]; [18]
  Plant response rating, Barnyardgrass: 15
[9]; Preemergence, 250 g ai/ha
  Plant response rating (scale of 0 to 100), Blackgrass: 90
[9]; [21]
  Blackgrass plant response rating: 50
[9]; [22]
  Blackgrass plant response rating: 90
[9]; [23]
  Plant response rating, Blackgrass: 90
[10]; Preemergence, 250 g ai/ha
  Plant response rating (scale of 0 to 100), Johnsongrass: 98
[10]; [21]
  Johnsongrass plant response rating: 45
[10]; [22]
  Johnsongrass plant response rating: 85
[10]; [23]
  Plant response rating, Johnsongrass: 95
[11]; Preemergence, 250 g ai/ha
  Plant response rating (scale of 0 to 100), Pigweed: 100
[11]; [21]
  Pigweed plant response rating: 100
[11]; [22]
  Pigweed plant response rating: 100
[11]; [23]
  Plant response rating, Pigweed: 100
[12]; Preemergence, 250 g ai/ha
  Plant response rating (scale of 0 to 100), Galium: 100
[12]; [21]
  Galium plant response rating: 80
[12]; [22]
  Galium plant response rating: 80
[12]; [23]
  Plant response rating, Galium: 100
[13]; [15]
  Plant response rating (scale of 0 to 100 where 0 is no effect and 100 is complete control), Ragweed: 50
[13]; [16]
  Ragweed plant response rating: 40
[13]; [17]
  Plant response rating, Ragweed: 85
[13]; [18]
  Plant response rating, Ragweed: 85
[14]; [19]
  Pigweed plant response rating: 100
[14]; [20]
  Pigweed plant response rating: 100
